Values joined by “and” are separate entries in the source; they are usually repeats but may differ in a detail not shown here. Equal values may be shown once.
Legend:
HCV JFH1 = HCV JFH1 infectivity assay (JFH1 Foci Reduction Assay); format: cell-based, hepatitis C virus; conditions: virus preincubated with compound; Huh 7 cells; 48 hr post infection; RD8, RD16, RD17, RD18 as glucosidase hydrolysis products
HCV/HIV pseudovirions = assay: microbe, parasite or virus in culture; format: cell-based, hepatitis C virus
HBsAg = assay: Anti-HBSAg Assay (Procedure B), HBsAg; format: cell-based, hepatitis B virus
Procedure: The HBV-producing human hepatoblastoma cell line, Hep G2 2.2.15 is maintained in DMEM supplemented with 10% fetal bovine serum (FBS), 2 mM glutamine, 100 units/ml penicillin, 100 μg/ml streptomycin at 37° C. under 5% CO2 in air.
Samples were dissolved in DMSO at the concentration of 20 mg/mL, then further diluted with DMEM medium to the appropriate concentration.
Hep G2 2.2.15 cells (120 μl) were seeded onto 96-well plates at a concentration of 2×10^5 cells/mL. The cells incubated for 72 h in the medium without G418, after which the test samples (120 μl) were added. Five 3-fold serial dilutions of samples were tested. PBS and 3TC (lamivudine) were included as the negative and positive controls, respectively. The treated cells were incubated at 37° C. for 9 days; with the medium with sample being changed each 3 days, after which the culture supernatant was removed for analysis of both the hepatitis B surface antigen (HBsAg) production and hepatitis B DNA expression.
The HBsAg released into the culture medium in the presence or absence of test material was assayed using the kit manufactured by Shanghai Siic Kehua Biotech Co., Ltd (Shanghai, China). This enzyme immunoassay is based on the capture of HBsAg on monoclonal antibody-coated plates. Four- and twelve-fold dilutions of all culture supernatants collected were assayed in triplicate wells of the kit plate. The percentage inhibition of HBsAg secretion in the presence of the compound was calculated against the negative control (PBS). The IC50 values, the dose that inhibited viruses by 50%, were calculated using non-linear regression analysis (percent survival versus concentration).

HBV DNA = assay: Anti-HBV DNA Assay; format: cell-based, hepatitis B virus; conditions: for HBV DNA copies/ml: replicates, listed as HP-S4
HBeAg = assay: Anti-HBSAg Assay (Procedure B), HBeAg; format: cell-based, hepatitis B virus
Hep G2.2.15 cells = assay: % Cell Viability in Anti-HBSAg Assay (Procedure A); format: cell-based, human; conditions: 50 μg/ml
Procedure: (§1) The HBV-producing human hepatoblastoma cell line, Hep G2.2.15 was maintained in DMEM supplemented with 10% fetal bovine serum (FBS), 2 mM glutamine, 100 units/ml penicillin, 100 μg/ml streptomycin and 380 μg/ml gentamicin sulfate (G418) at 37° C. under 5% CO2 in air. The Hep G2 parental cells were grown under identical conditions in MEM with Earle's salts without G418.
(§2) Hep G2.2.15 cells (190 μl) were seeded onto microtiter plates at a concentration of 20×10^4 cells/ml. The cells incubated overnight in medium without G418 after which the compound compositions (10 μl) were added. Five 2-fold serial dilutions of extracts or fractions were tested starting at 200 μg/ml final culture concentration. PBS and 3TC (lamivudine) were included as the negative and positive controls, respectively. The treated cells were incubated at 37° C. for 4 days, after which the hepatitis B surface antigen (HBsAg) production in culture supernatants was assayed. The HBsAg released into the culture medium in the presence or absence of test samples was assayed using the BIO-RAD Genetic Systems HBsAg EIA 3.0 kit (Bio-Rad, Redmond, Wash.). This enzyme immunoassay is based on the capture of HBsAg on monoclonal antibody-coated plates. Four- and twelve-fold dilutions of all culture supernatants collected were assayed in triplicate wells of the EIA plate. The percentage inhibition of HBsAg secretion in the presence of the plant samples was calculated against the negative control (PBS).

[1] = system: hepatitis B surface antigen (HBsAg) production; assay: Anti-HBSAg Assay (Procedure A); format: cell-based, hepatitis B virus; conditions: 50 μg/ml
Procedure: as §1, §2

[2] = Enzyme Hydrolysis Processing Time 0.5 hours
[3] = Enzyme Hydrolysis Processing Time 4.0 hours

SMILES: COC(=O)C1=COC(O)C2C1CC(O)C2C (mixture of isomers) [RD-8]
- Estimated IC50 (inhibition of HCV JFH1 infectivity) (HCV JFH1): 15 µg/mL
- HCV Inhibition at 20 μg/mL (HCV/HIV pseudovirions; [2]): 24.8
- HCV Inhibition at 20 μg/mL (HCV/HIV pseudovirions; [3]): 41.4

SMILES: OCC1=C[C@@H](O)[C@@H]2C=CO[C@@H](O)[C@H]12 [aucubin aglycone]
- inhibition of HCV/HIV entry (HCV/HIV pseudovirions; 100 μg/mL, FIG. 1): approximately 80%
- HBsAg Ave. (HBsAg; 6.25 μg/mL): 1.407
- HBsAg Inhibition % (HBsAg; 6.25 μg/mL): 0%
- HBsAg OD1 (HBsAg; 6.25 μg/mL): 1.392
- HBsAg OD2 (HBsAg; 6.25 μg/mL): 1.375
- HBsAg OD3 (HBsAg; 6.25 μg/mL): 1.454
- HBsAg Ave. (HBsAg; 12.5 μg/mL): 1.323
- HBsAg Inhibition % (HBsAg; 12.5 μg/mL): 4.5%
- HBsAg OD1 (HBsAg; 12.5 μg/mL): 1.370
- HBsAg OD2 (HBsAg; 12.5 μg/mL): 1.372
- HBsAg OD3 (HBsAg; 12.5 μg/mL): 1.227
- HBsAg Ave. (HBsAg; 25 μg/mL): 1.300
- HBsAg Inhibition % (HBsAg; 25 μg/mL): 6.1%
- HBsAg OD1 (HBsAg; 25 μg/mL): 1.608
- HBsAg OD2 (HBsAg; 25 μg/mL): 1.116
- HBsAg OD3 (HBsAg; 25 μg/mL): 1.175
- HBsAg Ave. (HBsAg; 50 μg/mL): 0.845
- HBsAg Inhibition % (HBsAg; 50 μg/mL): 37.9%
- HBsAg OD1 (HBsAg; 50 μg/mL): 0.935
- HBsAg OD2 (HBsAg; 50 μg/mL): 0.926
- HBsAg OD3 (HBsAg; 50 μg/mL): 0.675
- HBsAg Ave. (HBsAg; 100 μg/mL): 0.656
- HBsAg Inhibition % (HBsAg; 100 μg/mL): 52.6%
- HBsAg OD1 (HBsAg; 100 μg/mL): 0.667
- HBsAg OD2 (HBsAg; 100 μg/mL): 0.641
- HBsAg OD3 (HBsAg; 100 μg/mL): 0.66
- HBV DNA Average (HBV DNA; 6.25 μg/ml): 1.10 × 10^6 copies/ml
- HBV DNA Inhibit (HBV DNA; 6.25 μg/ml): 5.99%
- HBV DNA copies/ml (HBV DNA; 6.25 μg/ml): 1.26E+06 copies/ml and 9.83E+05 copies/ml and 1.06E+06 copies/ml
- HBV DNA Average (HBV DNA; 12.5 μg/ml): 9.52 × 10^5 copies/ml
- HBV DNA Inhibit (HBV DNA; 12.5 μg/ml): 8.60%
- HBV DNA copies/ml (HBV DNA; 12.5 μg/ml): 1.16E+06 copies/ml and 9.17E+05 copies/ml and 7.78E+05 copies/ml
- HBV DNA Average (HBV DNA; 25 μg/ml): 1.01 × 10^6 copies/ml
- HBV DNA Inhibit (HBV DNA; 25 μg/ml): 13.70%
- HBV DNA copies/ml (HBV DNA; 25 μg/ml): 1.02E+06 copies/ml and 9.74E+05 copies/ml and 1.04E+06 copies/ml
- HBV DNA Average (HBV DNA; 50 μg/ml): 9.79 × 10^5 copies/ml
- HBV DNA Inhibit (HBV DNA; 50 μg/ml): 16.30%
- HBV DNA copies/ml (HBV DNA; 50 μg/ml): 1.05E+06 copies/ml and 9.27E+05 copies/ml and 9.59E+05 copies/ml
- HBV DNA Average (HBV DNA; 100 μg/ml): 8.43 × 10^5 copies/ml
- HBV DNA Inhibit (HBV DNA; 100 μg/ml): 27.90%
- HBV DNA copies/ml (HBV DNA; 100 μg/ml): 7.90E+05 copies/ml and 7.94E+05 copies/ml and 9.44E+05 copies/ml
- HBeAg Ave (HBeAg; 6.25 μg/mL): 1.299
- HBeAg Inhibition % (HBeAg; 6.25 μg/mL): 0%
- HBeAg OD1 (HBeAg; 6.25 μg/mL): 1.327
- HBeAg OD2 (HBeAg; 6.25 μg/mL): 1.265
- HBeAg OD3 (HBeAg; 6.25 μg/mL): 1.304
- HBeAg Ave (HBeAg; 12.5 μg/mL): 1.393
- HBeAg Inhibition % (HBeAg; 12.5 μg/mL): 0%
- HBeAg OD1 (HBeAg; 12.5 μg/mL): 1.561
- HBeAg OD2 (HBeAg; 12.5 μg/mL): 1.316
- HBeAg OD3 (HBeAg; 12.5 μg/mL): 1.303
- HBeAg Ave (HBeAg; 25 μg/mL): 1.334
- HBeAg Inhibition % (HBeAg; 25 μg/mL): 0%
- HBeAg OD1 (HBeAg; 25 μg/mL): 1.375
- HBeAg OD2 (HBeAg; 25 μg/mL): 1.335
- HBeAg OD3 (HBeAg; 25 μg/mL): 1.293
- HBeAg Ave (HBeAg; 50 μg/mL): 1.226
- HBeAg Inhibition % (HBeAg; 50 μg/mL): 0%
- HBeAg OD1 (HBeAg; 50 μg/mL): 1.295
- HBeAg OD2 (HBeAg; 50 μg/mL): 1.259
- HBeAg OD3 (HBeAg; 50 μg/mL): 1.123
- HBeAg Ave (HBeAg; 100 μg/mL): 1.329
- HBeAg Inhibition % (HBeAg; 100 μg/mL): 0%
- HBeAg OD1 (HBeAg; 100 μg/mL): 1.162
- HBeAg OD2 (HBeAg; 100 μg/mL): 1.391
- HBeAg OD3 (HBeAg; 100 μg/mL): 1.435

SMILES: OCC1=CC(O)C2C=COC(O)C12 (mixture of isomers) [aucubin enzyme hydrolysate, reference compound]
- % Cell Viability (Hep G2.2.15 cells): 100%
- % Control HBSAg [1]: 96%
- % Inhibition [1]: 4%

SMILES: CC1C(O)CC2C(C(=O)O)=COC(O)C21 (mixture of isomers) [RD-17]
- Estimated IC50 (inhibition of HCV JFH1 infectivity) (HCV JFH1): 17 µg/mL
- HCV Inhibition at 20 μg/mL (HCV/HIV pseudovirions; [2]): 39.4
- HCV Inhibition at 20 μg/mL (HCV/HIV pseudovirions; [3]): 52.5

Reference: patent publication US20080319042A1, “Compositions and methods for treatment of liver disease” (priority 2007, published 2008)
